# Assay results reported in patent US8450357B2, “Compositions comprising an aryl pyrazole and/or a formamidine, methods and uses thereof” (Merial Limited, priority 2008, dated 2013).
# Read-outs that look alike come from different tables or passages of the source.
# Assays:
# [1] = test system: Ctenocephalides felis fleas; test: Study C: flea efficacy of Compound 1 and fipronil alone and with amitraz in dogs; format: in vivo
# Procedure: The effectiveness of Compound 1 alone, fipronil alone, Compound 1 in combination with amitraz, or fipronil in combination with amitraz, when administered once as topical solutions to dogs against induced infestations of Rhipicephalus sanguineus and Ctenocephalides felis were determined in a third clinical study. Thirty-six beagles (18 males and 18 females) were selected for the study. Six replicates of 6 animals each were formed. Treatment Group 1 dogs were treated with a placebo. Treatment Groups 2, 3, 4, 5 and 6 received their respective treatments as a topical spot-on application once on Day 0. Each formulation included diethyleneglycol monoethyl ether (transcutol) as carrier. The Treatment Groups were: Treatment Group 2: fipronil at 0.1 mL/kg body weight (10 mg/kg); Treatment Group 3: Compound 1 at 0.1 mL/kg (10 mg/kg) body weight; Treatment Group 4: Compound 1 at 0.2 mL/kg (20 mg/kg) body weight; Treatment Group 5: Compound 1 at 0.1 mL/kg (10 mg/kg) body weight plus amitraz at 0.04 mL/kg (8 mg/kg) body weight; Treatment Group 6: fipronil at 0.1 mL/kg (10 mg/kg) body weight plus amitraz at 0.04 mL/kg (8 mg/kg) body weight. Treatment was applied by parting the hair and applying the formulation(s) directly onto the skin on one spot at the midline of the neck, except for Groups 4, 5 and 6 which were applied in approximately equal volumes on two spots, one spot between the base of the skull and the shoulder blades and the other at the front of the shoulder blades.
# All dogs were infested with approximately 50 Rhipicephalus sanguineus ticks on Days −1, 7, 14, 21, 28, 35, 42, 49 and 56. Dogs were also infested with approximately 100 Ctenocephalides felis fleas on Days −1, 8, 15, 22, 29, 36, 43, 50 and 57. Ectoparasites were removed and counted on Day 2, approximately 48 hours after treatment and on Days 9, 16, 23, 30, 37, 44, 51 and 58 approximately 24 hours after flea infestation and 48 hours after tick infestation. Tables 8 and 9 below show the % efficacy of formulations comprising fipronil at 0.1 ml/kg of body weight, Compound 1 at […], and fipronil and Compound 1 both at […] in combination with amitraz at 0.04 ml/kg of body weight compared to control group without active compounds. The percent reduction in flea counts of the treated groups with respect to the Control group over the study is shown in FIG. 14.
# [2] = test system: adult Rhipicephalus sanguineus ticks; test: whole plant or invertebrate; format: in vivo; details: for Synergistic Ratio (EC50): EC50 alone divided by EC50 with Amitraz (12.5 ppm); for Synergistic Ratio (EC90): EC90 alone divided by EC90 with Amitraz (12.5 ppm); for mortality at 0.0016 ppm / mortality at 0.006 ppm / mortality at 0.025 ppm / mortality at 0.1 ppm / mortality at 0.4 ppm / mortality at 1.6 ppm / mortality at 6.25 ppm / mortality at 25 ppm / mortality at 12.5 ppm: Rhipicephalus sanguineus
# Source text: Dosages were serially diluted using this same formulation.
# [3] = 6 h, read-out: 6 hour % Mortality Rep 1
# [4] = 6 h, read-out: 6 hour % Mortality Rep 2
# [5] = 6 h, read-out: 6 hour Avg. % Mortality
# [6] = 24 h, read-out: 24 hour % Mortality Rep 1
# [7] = 24 h, read-out: 24 hour % Mortality Rep 2
# [8] = 24 h, read-out: 24 hour Avg. % Mortality
# [9] = 48 h, read-out: 48 hour % Mortality Rep 1
# [10] = 48 h, read-out: 48 hour % Mortality Rep 2
# [11] = 48 h, read-out: 48 hour Avg. % Mortality
smiles,measurement,setting,value
"Cc1c([S+]([O-])C(F)(Cl)Cl)c(C#N)nn1-c1c(F)cc(C(F)(F)F)cc1Cl (centres unmarked) [Compound 1, 3-cyano-1-(2-chloro-6-fluoro-4-trifluoromethylphenyl)-4-dichlorofluoromethylsulfinyl-5-methyl-1H-pyrazole]",% Efficacy against fleas,"[1]; Day 2, 10 mg/kg",100%
same,% Efficacy against fleas,"[1]; Day 2, 20 mg/kg",100%
same,% Efficacy against fleas,"[1]; Day 9, 10 mg/kg",100%
same,% Efficacy against fleas,"[1]; Day 9, 20 mg/kg",100%
same,% Efficacy against fleas,"[1]; Day 16, 10 mg/kg",100%
same,% Efficacy against fleas,"[1]; Day 16, 20 mg/kg",100%
same,% Efficacy against fleas,"[1]; Day 23, 10 mg/kg",100%
same,% Efficacy against fleas,"[1]; Day 23, 20 mg/kg",100%
same,% Efficacy against fleas,"[1]; Day 30, 10 mg/kg",99.8%
same,% Efficacy against fleas,"[1]; Day 30, 20 mg/kg",100%
same,% Efficacy against fleas,"[1]; Day 37, 10 mg/kg",99.4%
same,% Efficacy against fleas,"[1]; Day 37, 20 mg/kg",100%
same,% Efficacy against fleas,"[1]; Day 44, 10 mg/kg",98.6%
same,% Efficacy against fleas,"[1]; Day 44, 20 mg/kg",100%
same,% Efficacy against fleas,"[1]; Day 51, 10 mg/kg",98.5%
same,% Efficacy against fleas,"[1]; Day 51, 20 mg/kg",99.8%
same,% Efficacy against fleas,"[1]; Day 58, 10 mg/kg",94.6%
same,% Efficacy against fleas,"[1]; Day 58, 20 mg/kg",100%
"N#Cc1nn(-c2c(Cl)cc(C(F)(F)F)cc2Cl)c(N)c1[S+]([O-])C(F)(F)F (centres unmarked) [fipronil, 5-amino-3-cyano-1-(2,6-dichloro-4-trifluoromethylphenyl)-4-trifluoromethylsulfinylpyrazole]",Synergistic Ratio (EC50),[2]; 6 hour Eval,14.7
same,Synergistic Ratio (EC90),[2]; 6 hour Eval,>6.76
same,Synergistic Ratio (EC50),[2]; 24 hour Eval,156.8
same,Synergistic Ratio (EC90),[2]; 24 hour Eval,>156
same,Synergistic Ratio (EC50),[2]; 48 hour Eval,56.4
same,Synergistic Ratio (EC90),[2]; 48 hour Eval,32.3
same,mortality at 0.0016 ppm,[2]; [3],0%
same,mortality at 0.006 ppm,[2]; [3],0%
same,mortality at 0.025 ppm,[2]; [3],0%
same,mortality at 0.1 ppm,[2]; [3],0%
same,mortality at 0.4 ppm,[2]; [3],0%
same,mortality at 1.6 ppm,[2]; [3],0%
same,mortality at 6.25 ppm,[2]; [3],0%
same,mortality at 25 ppm,[2]; [3],40%
same,mortality at 0.0016 ppm,[2]; [4],0%
same,mortality at 0.006 ppm,[2]; [4],0%
same,mortality at 0.025 ppm,[2]; [4],0%
same,mortality at 0.1 ppm,[2]; [4],0%
same,mortality at 0.4 ppm,[2]; [4],0%
same,mortality at 1.6 ppm,[2]; [4],0%
same,mortality at 6.25 ppm,[2]; [4],20%
same,mortality at 25 ppm,[2]; [4],60%
same,mortality at 0.0016 ppm,[2]; [5],0%
same,mortality at 0.006 ppm,[2]; [5],0%
same,mortality at 0.025 ppm,[2]; [5],0%
same,mortality at 0.1 ppm,[2]; [5],0%
same,mortality at 0.4 ppm,[2]; [5],0%
same,mortality at 1.6 ppm,[2]; [5],0%
same,mortality at 6.25 ppm,[2]; [5],10%
same,mortality at 25 ppm,[2]; [5],50%
same,mortality at 0.0016 ppm,[2]; [6],0%
same,mortality at 0.006 ppm,[2]; [6],0%
same,mortality at 0.025 ppm,[2]; [6],0%
same,mortality at 0.1 ppm,[2]; [6],0%
same,mortality at 0.4 ppm,[2]; [6],0%
same,mortality at 6.25 ppm,[2]; [6],90%
same,mortality at 25 ppm,[2]; [6],80%
same,mortality at 0.0016 ppm,[2]; [7],0%
same,mortality at 0.006 ppm,[2]; [7],0%
same,mortality at 0.025 ppm,[2]; [7],0%
same,mortality at 0.1 ppm,[2]; [7],0%
same,mortality at 0.4 ppm,[2]; [7],0%
same,mortality at 1.6 ppm,[2]; [7],40%
same,mortality at 6.25 ppm,[2]; [7],50%
same,mortality at 25 ppm,[2]; [7],90%
same,mortality at 0.0016 ppm,[2]; [8],0%
same,mortality at 0.006 ppm,[2]; [8],0%
same,mortality at 0.025 ppm,[2]; [8],0%
same,mortality at 0.1 ppm,[2]; [8],0%
same,mortality at 0.4 ppm,[2]; [8],0%
same,mortality at 1.6 ppm,[2]; [8],30%
same,mortality at 6.25 ppm,[2]; [8],70%
same,mortality at 25 ppm,[2]; [8],85%
same,mortality at 0.0016 ppm,[2]; [9],0%
same,mortality at 0.006 ppm,[2]; [9],0%
same,mortality at 0.025 ppm,[2]; [9],0%
same,mortality at 0.1 ppm,[2]; [9],0%
same,mortality at 0.4 ppm,[2]; [9],20%
same,mortality at 1.6 ppm,[2]; [9],50%
same,mortality at 6.25 ppm,[2]; [9],100%
same,mortality at 25 ppm,[2]; [9],100%
same,mortality at 0.0016 ppm,[2]; [10],0%
same,mortality at 0.006 ppm,[2]; [10],0%
same,mortality at 0.025 ppm,[2]; [10],0%
same,mortality at 0.1 ppm,[2]; [10],0%
same,mortality at 0.4 ppm,[2]; [10],20%
same,mortality at 1.6 ppm,[2]; [10],60%
same,mortality at 6.25 ppm,[2]; [10],100%
same,mortality at 25 ppm,[2]; [10],100%
same,mortality at 0.0016 ppm,[2]; [11],0%
same,mortality at 0.006 ppm,[2]; [11],0%
same,mortality at 0.025 ppm,[2]; [11],0%
same,mortality at 0.1 ppm,[2]; [11],0%
same,mortality at 0.4 ppm,[2]; [11],20%
same,mortality at 1.6 ppm,[2]; [11],55%
same,mortality at 6.25 ppm,[2]; [11],100%
same,mortality at 25 ppm,[2]; [11],100%
same,% Efficacy against fleas,"[1]; Day 2, 10 mg/kg",100%
same,% Efficacy against fleas,"[1]; Day 9, 10 mg/kg",100%
same,% Efficacy against fleas,"[1]; Day 16, 10 mg/kg",100%
same,% Efficacy against fleas,"[1]; Day 23, 10 mg/kg",100%
same,% Efficacy against fleas,"[1]; Day 30, 10 mg/kg",100%
same,% Efficacy against fleas,"[1]; Day 37, 10 mg/kg",100%
same,% Efficacy against fleas,"[1]; Day 44, 10 mg/kg",99.8%
same,% Efficacy against fleas,"[1]; Day 51, 10 mg/kg",100%
same,% Efficacy against fleas,"[1]; Day 58, 10 mg/kg",99.1%
"Cc1ccc(/N=C/N(C)/C=N/c2ccc(C)cc2C)c(C)c1 [Amitraz, amitraz]",mortality at 6.25 ppm,[2]; [3],0%
same,mortality at 12.5 ppm,[2]; [3],0%
same,mortality at 25 ppm,[2]; [3],0%
same,mortality at 6.25 ppm,[2]; [4],0%
same,mortality at 12.5 ppm,[2]; [4],0%
same,mortality at 25 ppm,[2]; [4],0%
same,mortality at 6.25 ppm,[2]; [5],0%
same,mortality at 12.5 ppm,[2]; [5],0%
same,mortality at 25 ppm,[2]; [5],0%
same,mortality at 6.25 ppm,[2]; [6],0%
same,mortality at 12.5 ppm,[2]; [6],0%
same,mortality at 25 ppm,[2]; [6],0%
same,mortality at 6.25 ppm,[2]; [7],0%
same,mortality at 12.5 ppm,[2]; [7],0%
same,mortality at 25 ppm,[2]; [7],0%
same,mortality at 6.25 ppm,[2]; [8],0%
same,mortality at 12.5 ppm,[2]; [8],0%
same,mortality at 25 ppm,[2]; [8],0%
same,mortality at 6.25 ppm,[2]; [9],0%
same,mortality at 12.5 ppm,[2]; [9],0%
same,mortality at 25 ppm,[2]; [9],10%
same,mortality at 6.25 ppm,[2]; [10],0%
same,mortality at 12.5 ppm,[2]; [10],0%
same,mortality at 25 ppm,[2]; [10],10%
same,mortality at 6.25 ppm,[2]; [11],0%
same,mortality at 12.5 ppm,[2]; [11],0%
same,mortality at 25 ppm,[2]; [11],10%
